Reference: PubChem BioAssay (NCI)
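Briefly, cells in 96-well plates were exposed to five compound concentrations for 48 h, and endpoints were estimated by linear interpolation. TGI marks complete inhibition of growth.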

Columns and labels:
Assay in all cases: NCI anticancer screen, dose series, 48 h
NCI-H522 lung = test system: NCI-H522 lung
SNB-19 CNS = test system: SNB-19 CNS
SK-MEL-28 melanoma = test system: SK-MEL-28 melanoma
SK-MEL-2 melanoma = test system: SK-MEL-2 melanoma
HS 578T breast = test system: HS 578T breast
OVCAR-8 ovarian = test system: OVCAR-8 ovarian
UACC-257 melanoma = test system: UACC-257 melanoma
MOLT-4 leukemia = test system: MOLT-4 leukemia
NCI-H460 lung = test system: NCI-H460 lung
OVCAR-3 ovarian = test system: OVCAR-3 ovarian
SNB-75 CNS = test system: SNB-75 CNS
NCI-H23 lung = test system: NCI-H23 lung
HL-60(TB) leukemia = test system: HL-60(TB) leukemia
KM12 colon = test system: KM12 colon
NCI/ADR-RES ovarian = test system: NCI/ADR-RES ovarian
TK-10 renal = test system: TK-10 renal
UO-31 renal = test system: UO-31 renal
MDA-MB-435 = test system: MDA-MB-435
BT-549 breast = test system: BT-549 breast
HOP-62 NSCLC = test system: HOP-62 NSCLC
SK-OV-3 ovarian = test system: SK-OV-3 ovarian
PC-3 prostate = test system: PC-3 prostate
HCT-15 colon = test system: HCT-15 colon
A498 renal = test system: A498 renal
OVCAR-4 ovarian = test system: OVCAR-4 ovarian
A549 NSCLC = test system: A549 NSCLC
U251 CNS = test system: U251 CNS
MCF7 breast = test system: MCF7 breast
OVCAR-5 ovarian = test system: OVCAR-5 ovarian
EKVX NSCLC = test system: EKVX NSCLC
T-47D breast = test system: T-47D breast
SK-MEL-5 melanoma = test system: SK-MEL-5 melanoma
CCRF-CEM leukemia = test system: CCRF-CEM leukemia
SF-539 CNS = test system: SF-539 CNS
HT29 colon = test system: HT29 colon
UACC-62 melanoma = test system: UACC-62 melanoma
HCC-2998 colon = test system: HCC-2998 colon
K-562 leukemia = test system: K-562 leukemia
DU-145 prostate = test system: DU-145 prostate
SF-295 CNS = test system: SF-295 CNS
LOX IMVI melanoma = test system: LOX IMVI melanoma
MALME-3M melanoma = test system: MALME-3M melanoma
RPMI-8226 leukemia = test system: RPMI-8226 leukemia
SW-620 colon = test system: SW-620 colon
IGROV1 ovarian = test system: IGROV1 ovarian
SR leukemia = test system: SR leukemia
M14 melanoma = test system: M14 melanoma
SN12C renal = test system: SN12C renal
CAKI-1 renal = test system: CAKI-1 renal
ACHN renal = test system: ACHN renal
MDA-N = test system: MDA-N
786-0 renal = test system: 786-0 renal
HOP-92 NSCLC = test system: HOP-92 NSCLC
SF-268 CNS = test system: SF-268 CNS
HCT-116 colon = test system: HCT-116 colon
COLO 205 colon = test system: COLO 205 colon
NCI-H226 lung = test system: NCI-H226 lung
RXF 393 renal = test system: RXF 393 renal
MDA-MB-231 breast = test system: MDA-MB-231 breast

Measured: TGI

COc1cc(C(c2ccccc2)N2C(=O)CC[C@H]2C(=O)O)cc(OC)c1OC (stereo partly drawn)
not listed: RXF 393 renal | MDA-MB-231 breast
> 100 µM: all other assays above

CCSC12OC3(CCCCCN3C1=O)C1C(=O)N(c3ccccc3)C(=O)C12 (stereo not drawn)
not listed: HOP-62 NSCLC | MCF7 breast | HCC-2998 colon | RPMI-8226 leukemia
> 100 µM: all other assays above

NS(=O)(=O)c1ccc(-c2ccc([As](=O)(O)O)cc2)cc1
not listed: A498 renal | CCRF-CEM leukemia | HCC-2998 colon
> 100 µM: all other assays above
